# Laboratory results reported in paper PMC8597734 (Antimicrobial Agents and Chemotherapy, 2021).
# Like-named read-outs stand apart in the source and are kept apart here.
# Columns and labels:
# M. abscessus Bamboo [1] = assay: microbe, parasite or virus in culture; type: cell-based, Mycobacterium abscessus; conditions: Mycobacteroides abscessus, 72 h
# [2] = system: M. abscessus subsp. abscessus K21; assay: microbe, parasite or virus in culture; type: cell-based, Mycobacterium abscessus; conditions: Mycobacteroides abscessus, 72 h
# ChromlogD assay = type: physicochemical; conditions: reversed phase HPLC column (Gemini NX C18)
# Description: The Chromatographic Hydrophobicity Index (CHI) values are measured using reversed phase HPLC column (50 × 2 mm […] Gemini NX C18, Phenomenex, UK) with fast acetonitrile gradient at starting mobile phase of pHs 2, 7.4 and 10.5. CHI values are derived directly from the gradient retention times by using a calibration line obtained for standard compounds. The CHI value approximates to the volume % organic concentration when the compound elutes. CHI is linearly transformed into ChromlogD by least-square fitting of experimental CHI values to calculated ClogP values for over 20K research compounds using the following formula: ChromlogD = 0.0857CHI-2.00. The average error of the assay is ±3 CHI unit or ±0.25 ChromlogD.
# M. abscessus Bamboo [3] = system: M. abscessus Bamboo
# [4] = system: M. abscessus subsp. abscessus M337; assay: microbe, parasite or virus in culture; type: cell-based, Mycobacterium abscessus; conditions: Mycobacteroides abscessus, 72 h
# [5] = system: M. abscessus subsp. abscessus ATCC 19977; assay: microbe, parasite or virus in culture; type: cell-based, Mycobacterium abscessus; conditions: Mycobacteroides abscessus
# [6] = system: M. abscessus subsp. bolletii M506; assay: microbe, parasite or virus in culture; type: cell-based, Mycobacterium abscessus; conditions: Mycobacteroides abscessus, 72 h
# [7] = system: M. abscessus ATCC 19977 MXF_R1 (GyrA D96Y); assay: microbe, parasite or virus in culture; type: cell-based, Mycobacterium abscessus; conditions: Mycobacteroides abscessus, ATCC19977
# [8] = system: M. abscessus Bamboo RM3 (GyrA D91N); assay: microbe, parasite or virus in culture; type: cell-based, Mycobacterium abscessus
# [9] = system: M. abscessus subsp. abscessus M404; assay: microbe, parasite or virus in culture; type: cell-based, Mycobacterium abscessus; conditions: Mycobacteroides abscessus, 72 h
structure (smiles),measurement,setting,value
COc1cnc2ccc(=O)n(CCN3CCC(NCc4cnc(CO)c(Cl)c4)CC3)c2c1 [EC/11716],MIC,M. abscessus Bamboo [1],2.5 µM
same,MIC,[2],3 µM
same,chromatographic logD,"ChromlogD assay; pH 7.4, read-out: ChromLogD pH 7.4",1.73
same,chromatographic logD,ChromlogD assay; read-out: LogD,1.74
same,frequency of resistance,M. abscessus Bamboo [3],1.8 × 10^−8 /CFU
same,MIC,[4],2.4 µM
same,MIC,[5]; ATCC19977,1.9 µM
same,MIC,"[5]; ATCC19977, 72 h",1.8 µM
same,MIC,[6],5.2 µM
same,MIC,[7],≤ 10 µM
same,MIC,[8],>100 µM
same,MIC,[8]; Mycobacteroides abscessus,> 100 µM
same,MIC,[9],2.6 µM
